Assay: molar heat capacity at constant pressure
Conditions: 100 kPa, Crystal, DSC

O=C(O)c1cc(O)c(O)c(O)c1 [3,4,5-trihydroxybenzoic acid]
Conditions | molar heat capacity at constant pressure [J/K/mol]
263.15 K | 178.8
264.15 K | 179.31
265.15 K | 179.82
266.15 K | 180.5
267.15 K | 181.18
268.15 K | 181.86
269.15 K | 182.54
270.15 K | 183.05
271.15 K | 183.73
272.15 K | 184.41
273.15 K | 184.92
274.15 K | 185.77
275.15 K | 185.6
276.15 K | 186.96
277.15 K | 187.3
278.15 K | 188.15
279.15 K | 188.49
280.15 K | 189
281.15 K | 189.34
282.15 K | 189.85
283.15 K | 190.36
284.15 K | 191.21
285.15 K | 191.55
286.15 K | 192.24
287.15 K | 193.09
288.15 K | 193.6
289.15 K | 194.28
290.15 K | 194.79
291.15 K | 195.64
292.15 K | 196.32
293.15 K | 197
294.15 K | 197.51
295.15 K | 198.19
296.15 K | 198.7
297.15 K | 199.38
298.15 K | 199.55
299.15 K | 200.06
300.15 K | 200.57
301.15 K | 201.25
302.15 K | 201.76
303.15 K | 202.44
304.15 K | 203.12
305.15 K | 203.8
306.15 K | 204.31
307.15 K | 204.65
308.15 K | 205.33
309.15 K | 206.18
310.15 K | 206.7
311.15 K | 207.04
312.15 K | 207.38
313.15 K | 208.23
314.15 K | 208.91
315.15 K | 209.08
316.15 K | 209.76
317.15 K | 210.61
318.15 K | 211.12
319.15 K | 211.46
320.15 K | 211.8
321.15 K | 212.14
322.15 K | 212.99
323.15 K | 211.97
324.15 K | 212.22
325.15 K | 212.9
326.15 K | 213.59
327.15 K | 214.27
328.15 K | 214.61
329.15 K | 215.09
330.15 K | 215.6
331.15 K | 216.11
332.15 K | 216.39
333.15 K | 216.9
334.15 K | 217.47
335.15 K | 217.92
336.15 K | 217.16
337.15 K | 217.71
338.15 K | 218.35
339.15 K | 218.99
340.15 K | 219.58
341.15 K | 220.09
342.15 K | 220.69
343.15 K | 221.58
344.15 K | 220.47
345.15 K | 220.64
346.15 K | 221.55
347.15 K | 222.29
348.15 K | 222.74
349.15 K | 223.31
350.15 K | 223.76
351.15 K | 224.44
352.15 K | 225.58
353.15 K | 224.69
354.15 K | 225.11
355.15 K | 225.75
356.15 K | 226.47
357.15 K | 226.9
358.15 K | 227.28
359.15 K | 227.92
360.15 K | 228.68
361.15 K | 229.15
362.15 K | 229.7
363.15 K | 229.83
364.15 K | 230.21
365.15 K | 230.81
366.15 K | 231.19
367.15 K | 233.29
368.15 K | 233.91
369.15 K | 234.54
370.15 K | 234.94
371.15 K | 235.6
372.15 K | 236.24
373.15 K | 236.91
374.15 K | 237.55
375.15 K | 238.16
376.15 K | 238.86
377.15 K | 239.45
378.15 K | 240.16
379.15 K | 240.81
380.15 K | 241.44
381.15 K | 242.11
382.15 K | 242.78
383.15 K | 243.42
384.15 K | 244.06
385.15 K | 244.7
386.15 K | 245.37
387.15 K | 246.02
388.15 K | 246.65
389.15 K | 247.32
390.15 K | 248.01
391.15 K | 248.58
392.15 K | 249.14
393.15 K | 249.71
394.15 K | 250.27
395.15 K | 250.84
396.15 K | 251.4
397.15 K | 251.97
398.15 K | 252.44
399.15 K | 253.11
400.15 K | 253.68
401.15 K | 254.24
402.15 K | 254.81
403.15 K | 255.1
404.15 K | 255.93
405.15 K | 256.5
406.15 K | 257.08
407.15 K | 257.65
408.15 K | 258.22
409.15 K | 258.78
410.15 K | 259.34
411.15 K | 259.92
412.15 K | 260.74
413.15 K | 261.25
414.15 K | 261.59
415.15 K | 261.81
416.15 K | 262.27
417.15 K | 262.78
418.15 K | 263.53
419.15 K | 264.31
420.15 K | 265.03
421.15 K | 266.54
422.15 K | 266.57
423.15 K | 267.3
424.15 K | 268.08
425.15 K | 268.84
426.15 K | 269.59
427.15 K | 270.33
428.15 K | 271.11
429.15 K | 271.85
430.15 K | 272.62
431.15 K | 273.38
432.15 K | 274.32
433.15 K | 274.91
434.15 K | 275.59
435.15 K | 275.85
436.15 K | 276.19
437.15 K | 276.7
438.15 K | 277.38
439.15 K | 277.72
440.15 K | 278.23
441.15 K | 278.83
442.15 K | 279.51
443.15 K | 280.61
444.15 K | 280.87
445.15 K | 281.12
446.15 K | 281.63
447.15 K | 282.23
448.15 K | 283.16
449.15 K | 283.84
450.15 K | 284.18
451.15 K | 285.04
452.15 K | 286.14
453.15 K | 286.82
454.15 K | 287.67
455.15 K | 288.44
456.15 K | 289.03
457.15 K | 289.8
458.15 K | 290.56
459.15 K | 291.24
460.15 K | 292.18
461.15 K | 292.86
462.15 K | 293.2
463.15 K | 293.8
464.15 K | 294.99
465.15 K | 295.67
466.15 K | 296.35
467.15 K | 297.03
468.15 K | 297.96
469.15 K | 298.9
470.15 K | 300.18
471.15 K | 301.03

Reference: the NIST ThermoML archive (doi:10.1016/j.jct.2018.09.027)
